Patent publication US9968614B2, “Aprepitant injectable formulations” (InnoPharma, Inc., priority 2012, dated 2018)
Where two headings read alike, the source gives them in different places.

Experiments:
[1] = Solubility of aprepitant in ethanol with the balance water; format: physicochemical
Description: Thus, while the above approaches using complexing agents and/or co-solvents led to a soluble form of aprepitant in at least some instances, concentration of aprepitant is relatively low, and aprepitant tends to precipitate out upon further dilution. As is already known in the art, solubility of aprepitant increases exponentially with increasing concentration of ethanol as shown in Table 1 in the background section. Moreover, maximum allowed concentrations of ethanol in a drug formulation are typically at or below 49 volume %. […] Moreover, and as already noted above, an ethanol/water solvent system is not suitable for injection as aprepitant will rapidly precipitate upon dilution at the injection site.

[2] = Solubility of aprepitant in aqueous surfactant solutions; format: physicochemical; details: water alone as solvent
Description: However, in a typical injectable formulation at Polysorbate 80 concentration of 10% w/v, it would require 7 grams of surfactant, and at Polysorbate 80 concentration of 30% w/v, it would require 9 grams of surfactant to solubilize the aprepitant. Unfortunately, such high quantities of surfactant are entirely unsuitable for injectable formulations (e.g., due to hypersensitivity issues related to polysorbate, foam formation during mixing, etc.). Table 2 below illustrates typical solubility data for aprepitant using water alone as solvent.

[3] = Solubility of aprepitant in water or ethanol/water with polysorbate 80; format: physicochemical
Description: The inventors further tested whether co-solvents (i.e., solvents in addition to water) in combination with surfactants would improve solubility of aprepitant. […] In most preferred aspects, a relatively low concentration of nonionic surfactant was chosen in a co-solvent mixture of ethanol and water, and Tables 3-5 below exemplarily illustrate the results of such combination.
More specifically, Table 3 depicts solubility results of aprepitant in water without ethanol at surfactant concentrations noted in the table.
Likewise, Table 4 depicts solubility results of aprepitant in an ethanol/water mixture of (30 vol % EtOH, 70 vol % H2O) at surfactant concentrations noted in the table, and Table 5 depicts solubility results of aprepitant in an ethanol/water mixture of (55 volume % EtOH, 45 vol % H2O) at surfactant concentrations noted in the table.

[4] = Solubility of aprepitant in polysorbate 80 solutions after pre-solubilisation in DMAC; format: physicochemical
Description: The inventors also tested whether solubility of aprepitant in aqueous polysorbate 80 solutions could be improved when aprepitant was pre-solubilized in a secondary solvent (e.g., dimethylacetamide (DMAC)). […] Remarkably, when the inventors directly added 200 μL of DMAC solubilized in 10 mL of water to 100 mg aprepitant (i.e., without surfactant), aprepitant was not detected in the solution phase.

[5] = Solubilization of aprepitant by pH (pKa, pH-dependent solubility); format: physicochemical
Description: Indeed, to be soluble in aqueous solution, a pH of greater than 11.7 is required. However, a formulation with such a high pH is not suitable for injection. Moreover, the instant such a formulation is diluted in blood, the pH will change to about pH 7.4, which will lead to rapid precipitation of the drug. […] Similar problems were also encountered where aprepitant is dissolved in a water/ethanol solvent mixture where ethanol is at about 50 volume 9 concentration. Here, dilution that would occur at the injection site would lead to precipitation of the drug and so might lead to chemo-embolism.

[6] = cited from earlier work
[7] = cited from earlier work; remark: listed apart in the source
[8] = given orally, nanoparticulate composition; cited from earlier work
[9] = IV infusion; cited from earlier work
[10] = prevention and control of acute and delayed chemotherapy induced nausea and vomiting; cited from earlier work

For `C[C@@H](O[C@H]1OCCN(Cc2nc(=O)[nH][nH]2)[C@H]1c1ccc(F)cc1)c1cc(C(F)(F)F)cc(C(F)(F)F)c1` [Aprepitant, 5-([(2R,3S)-2((R)-1-[3,5-bis(trifluoromethyl)phenyl]ethoxy)-3-(4-fluoro-phenyl)morpholino]methyl)-1H-1,2,4-triazol-3(2H)-one], the “Aprepitant Conc.” value ([1]; Ethanol Conc. (v/v) 10, balance water) was 0.0001 mg/mL, the “Aprepitant Conc.” value ([1]; Ethanol Conc. (v/v) 30, balance water) was 0.0232 mg/mL and the “Aprepitant Conc.” value ([1]; Ethanol Conc. (v/v) 50, balance water) was 1.76 mg/mL. The “Aprepitant Conc.” value ([1]; Ethanol Conc. (v/v) 55, balance water) was 3.30 mg/mL, the “Aprepitant Conc.” value ([1]; Ethanol Conc. (v/v) 60, balance water) was 5.1 mg/mL and the “Aprepitant Conc.” value ([1]; Ethanol Conc. (v/v) 70, balance water) was 12.8 mg/mL. For the same molecule, the “Aprepitant Conc.” value ([1]; Ethanol Conc. (v/v) 90, balance water) was 21.8 mg/mL, the “Aprepitant Conc.” value ([2]; Cremophor RH 40 10 % w/v) was 1.24 mg/mL and the “Aprepitant Conc.” value ([2]; Cremophor RH 40 30 % w/v) was 3.51 mg/mL. The “Aprepitant Conc.” value ([2]; Cremophor RH 60 10 % w/v) was 1.24 mg/mL, the “Aprepitant Conc.” value ([2]; Poloxamer 188 30 % w/v) was 1.24 mg/mL and the “Aprepitant Conc.” value ([2]; Polysorbate 80 10 % w/v) was 1.85 mg/mL. The “Aprepitant Conc.” value ([2]; Polysorbate 80 30 % w/v) was 4.42 mg/mL, the “Aprepitant Conc.” value ([3]; 30 vol % EtOH, 70 vol % H2O, Polysorbate 80 11 mg/mL) was 0.560 mg/mL and the “Aprepitant Conc.” value ([3]; 30 vol % EtOH, 70 vol % H2O, Polysorbate 80 44 mg/mL) was 0.793 mg/mL. The “Aprepitant Conc.” value ([3]; 30 vol % EtOH, 70 vol % H2O, no Polysorbate 80) was 0.0232 mg/mL, the “Aprepitant Conc.” value ([3]; 55 volume % EtOH, 45 vol % H2O, Polysorbate 80 11 mg/mL) was 1.936 mg/mL and the “Aprepitant Conc.” value ([3]; 55 volume % EtOH, 45 vol % H2O, Polysorbate 80 22 mg/mL) was 3.309 mg/mL. For the same molecule, the “Aprepitant Conc.” value ([3]; 55 volume % EtOH, 45 vol % H2O, Polysorbate 80 44 mg/mL) was 4.182 mg/mL, the “Aprepitant Conc.” value ([3]; 55 volume % EtOH, 45 vol % H2O, no Polysorbate 80) was 3.3 mg/mL and the “Aprepitant Conc.” value ([3]; water without ethanol, Polysorbate 80 11 mg/mL) was 0.179 mg/mL. For the same molecule, the “Aprepitant Conc.” value ([3]; water without ethanol, Polysorbate 80 22 mg/mL) was 0.308 mg/mL, the “Aprepitant Conc.” value ([3]; water without ethanol, Polysorbate 80 44 mg/mL) was 0.505 mg/mL and the “aprepitant in the solution phase” value ([4]; 200 μL DMAC in 10 mL water added directly to 100 mg aprepitant, without surfactant) was “not detected”. The “Aprepitant Conc.” value ([4]; Directly Added, Polysorbate 80 10 % w/v) was 1.85 mg/mL, the “Aprepitant Conc.” value ([4]; Directly Added, Polysorbate 80 30 % w/v) was 4.42 mg/mL and the “Aprepitant Conc.” value ([4]; Prior Solubilization in DMAC, Polysorbate 80 5 % w/v) was 0.85 mg/mL. The “Aprepitant Conc.” value ([4]; Prior Solubilization in DMAC, Polysorbate 80 10 % w/v) was 2.03 mg/mL, the “Aprepitant Conc.” value ([4]; Prior Solubilization in DMAC, Polysorbate 80 15 % w/v) was 3.13 mg/mL and the “Aprepitant Conc.” value ([4]; Prior Solubilization in DMAC, Polysorbate 80 20 % w/v) was 4.35 mg/mL. For the same molecule, the “Aprepitant Conc.” value ([4]; Prior Solubilization in DMAC, Polysorbate 80 30 % w/v) was 4.80 mg/mL, the “pH required to be soluble in aqueous solution” value ([5]; aqueous solution) was “greater than 11.7” and the “solubility in concentrated formic acid” value ([5]; concentrated formic acid) was “soluble”. The “behaviour on dilution of formic acid solution” value ([5]; twofold dilution with aqueous medium) was “precipitated almost immediately”, the pka [6] was 9.7 and the “solubility (descriptive)” value ([7]; acetonitrile) was “slightly soluble”. The “solubility (descriptive)” value ([7]; ethanol) was “sparingly soluble”, the “solubility (descriptive)” value ([7]; isopropyl acetate) was “sparingly soluble” and the “solubility (descriptive)” value ([7]; oil (as is well established)) was “substantially insoluble”. The “solubility (descriptive)” value ([7]; water (as is well established)) was “substantially insoluble”, the “solubility (descriptive)” value ([7]; water) was “practically insoluble” and the bioavailability [8] was 60-65%.
For `C[C@@H](O[C@H]1OCCN(Cc2nc(O)n(P(=O)(O)O)n2)[C@H]1c1ccc(F)cc1)c1cc(C(F)(F)F)cc(C(F)(F)F)c1` [Fosaprepitant], the “time for conversion to aprepitant” value [9] is listed as “less than 30 minutes” and the comparison to aprepitant [10] is listed as “non-inferiority and bioequivalency”.
